According to PubChem BioAssay AID1845228:

Settings: pampa; 60.0 min; 50.0 µM

| SMILES | Papp |
| --- | --- |
| Cc1ccc(NC(=O)c2ccc(CN3CCN(C)CC3)cc2)cc1Nc1nc(-c2cccnc2)cs1 | 100 ×10⁻⁶ cm/s |
| CC1=C(C(=O)O)N2C(=O)C(NC(=O)C(N)C3=CCC=CC3)C2SC1 (stereo not given) | < 1 ×10⁻⁶ cm/s |
| COC(=O)c1cccc(Cn2cnc3c(c(-c4ccccc4)c(-c4ccccc4)n3CCc3ccccc3)c2=N)c1 | 27 ×10⁻⁶ cm/s |
| CN(C)CCn1nnnc1SCC1=C(C(=O)O)N2C(=O)[C@@H](NC(=O)Cc3csc(N)n3)[C@H]2SC1 | 6 ×10⁻⁶ cm/s |
| C[C@H]([C@@H](O)c1ccccc1)n1cnc2c(c(-c3ccccc3)c(-c3ccccc3)n2Cc2ccccc2)c1=N | 3 ×10⁻⁶ cm/s |
| C=CCNC1=C2C[C@@H](C)C[C@H](OC)[C@H](O)[C@@H](C)/C=C(\C)[C@H](OC(N)=O)[C@@H](OC)/C=C\C=C(/C)C(=O)NC(=CC1=O)C2=O | 73 ×10⁻⁶ cm/s |
| Oc1ccc(/C=C/c2cc(O)cc(O)c2)cc1 | 5 ×10⁻⁶ cm/s |
| O=C(NCCCO)c1ccc(-c2ncc3cnc(-c4cccc(F)c4)cn23)cc1 | 46 ×10⁻⁶ cm/s |
| CCNC1(C(N)=O)CN(c2nc(C)nc3c(-c4ccc(Cl)cc4)c(-c4ccccc4Cl)nn23)C1 | 8.69 ×10⁻⁶ cm/s |
| C[n+]1c2cc(N)ccc2cc2ccc(N)cc21 | < 1 ×10⁻⁶ cm/s |
| Cn1nnnc1Sc1ncnc2scc(-c3ccsc3)c12 | 173 ×10⁻⁶ cm/s |
| CCOc1cc2ncc(C#N)c(Nc3ccc(F)c(Cl)c3)c2cc1NC(=O)C=CCN(C)C | 256 ×10⁻⁶ cm/s |
| O=C(Nc1ccccc1)N1CCC(Cc2cnc3ccccc3c2)CC1 | > 300 ×10⁻⁶ cm/s |
| CC[C@@]1(O)C(=O)OCc2c1cc1n(c2=O)Cc2c-1nc1ccccc1c2/C=N/OC(C)(C)C | 81 ×10⁻⁶ cm/s |
| O=C1CCCC2=C1C(c1[nH]ncc1Cl)N=C(Nc1nc3ccccc3o1)N2 (stereo not given) | 275 ×10⁻⁶ cm/s |
| CC1(C)CC(=O)c2c(C(F)(F)F)nn(-c3ccc(C(N)=O)c(NC4CCC(O)CC4)c3)c2C1 (stereo not given) | 21.5 ×10⁻⁶ cm/s |
| CC(C)NC(=O)COc1cccc(-c2nc(Nc3ccc4[nH]ncc4c3)c3ccccc3n2)c1 | 226 ×10⁻⁶ cm/s |
| Cn1nnnc1Sc1ncnc2scc(-c3cccc(F)c3)c12 | > 300 ×10⁻⁶ cm/s |
| [O-][n+]1cccc(/C(Cl)=N/OC[C@@H](O)CN2CCCCC2)c1 | 2 ×10⁻⁶ cm/s |
| O=C(CBr)N1CC([N+](=O)[O-])([N+](=O)[O-])C1 | < 1 ×10⁻⁶ cm/s |
| O=C(O)[C@H]1O[C@@H](Oc2cc3oc(-c4ccc(O)cc4)cc(=O)c3c(O)c2O)[C@H](O)[C@@H](O)[C@@H]1O | < 1 ×10⁻⁶ cm/s |
| CCOc1ccc(-c2nn3ncccc3c2-c2ccc(S(C)(=O)=O)cc2)cc1 | 111 ×10⁻⁶ cm/s |
| C[C@H](Nc1nc(N[C@H](C)C(F)(F)F)nc(-c2cccc(Cl)n2)n1)C(F)(F)F | 122 ×10⁻⁶ cm/s |
| N=c1c2c(-c3ccccc3)c(-c3ccccc3)n(Cc3ccccc3)c2ncn1CCNc1ccncc1 | 90 ×10⁻⁶ cm/s |

| SMILES | Papp |
| --- | --- |
| Cc1ccccc1NC(=O)Nc1ccc(CC(=O)N(C)[C@@H](CC(C)C)C(=O)NCC[C@H](NC(=O)[C@@H]2CCCN2S(=O)(=O)c2cc(Cl)cc(Cl)c2)C(=O)O)cc1 | 5 ×10⁻⁶ cm/s |
| N=c1c2c(-c3ccccc3)cn(Cc3ccccc3)c2ncn1[C@H](CO)Cc1ccccc1 | 22 ×10⁻⁶ cm/s |
| Cn1nnnc1Sc1ncnc2scc(-c3ccc(Cl)cc3)c12 | > 300 ×10⁻⁶ cm/s |
| O=C(CCCN1CCC(O)(c2ccc(Cl)cc2)CC1)c1ccc(F)cc1 | 217 ×10⁻⁶ cm/s |
| O=C(NC1CCC(O)CC1)c1ccc(-c2ncc3cnc(-c4cccc(F)c4)cn23)cc1 (stereo not given) | 59 ×10⁻⁶ cm/s |
| CN(C)CC1CCOC1(c1ccccc1)c1ccccc1 (stereo not given) | 47 ×10⁻⁶ cm/s |
| O=C(Cc1cccs1)NC1C(=O)N2C(C(=O)[O-])=C(C[n+]3ccccc3)CSC12 (stereo not given) | < 1 ×10⁻⁶ cm/s |
| CO/N=C(\C(=O)N[C@@H]1C(=O)N2C(C(=O)O)=C(C[N+]3(C)CCCC3)CS[C@H]12)c1csc(N)n1 | < 1 ×10⁻⁶ cm/s |
| CSCC[C@H](NC(=O)[C@H](Cc1ccccc1)NC(=O)CNC(=O)CNC(=O)[C@@H](N)Cc1ccc(O)cc1)C(=O)O | < 1 ×10⁻⁶ cm/s |
| NC(=O)c1ccc(-c2ncc3cnc(-c4cccc(F)c4)cn23)cc1 | 242 ×10⁻⁶ cm/s |
| N=c1c2c(-c3ccccc3)cn(Cc3ccccc3)c2ncn1C1CCC(O)CC1 (stereo not given) | 217 ×10⁻⁶ cm/s |
| CO[C@@]1(NC(=O)C(C(=O)O)c2ccc(O)cc2)C(=O)N2C(C(=O)O)=C(CSc3nnnn3C)CO[C@@H]21 (stereo not given in full) | < 1 ×10⁻⁶ cm/s |
| Cn1cc(C2=C(c3cn(CCCSC(=N)N)c4ccccc34)C(=O)NC2=O)c2ccccc21 | < 1 ×10⁻⁶ cm/s |
| O=C(NCC1CCOCC1)c1cnc(Nc2ccc(Cl)cc2Cl)nc1C(F)(F)F | < 1 ×10⁻⁶ cm/s |
| O=C(NCC1(N2CCN(c3ccccc3)CC2)CCOCC1)c1cccnc1Sc1ccccc1 | 207 ×10⁻⁶ cm/s |
| Cc1ccccc1CN1CCn2c(nn(CC3COc4ccccc4O3)c2=O)C1=O (stereo not given) | 57.7 ×10⁻⁶ cm/s |
| Cn1nnnc1Sc1ncnc2scc(-c3ccc[nH]3)c12 | 126 ×10⁻⁶ cm/s |
| COc1ccc(Cn2c(-c3ccccc3)c(-c3ccccc3)c3c(=N)n(CCCCCO)cnc32)cc1 | 206 ×10⁻⁶ cm/s |
| CC(C)N(CCCNC(=O)Nc1ccc(C(C)(C)C)cc1)C[C@H]1O[C@@H](n2cc(Br)c3c(N)ncnc32)[C@H](O)[C@@H]1O | 6.2 ×10⁻⁶ cm/s |
| NCc1ccccc1CC(=O)N[C@@H]1C(=O)N2C(C(=O)O)=C(CSc3nnnn3CC(=O)O)CS[C@H]12 | < 1 ×10⁻⁶ cm/s |
| CN(C)CCn1cnc2c(c(-c3ccccc3)c(-c3ccccc3)n2CCc2ccccc2)c1=N | 148 ×10⁻⁶ cm/s |
| Cn1nnnc1SCC1=C(C(=O)O)N2C(=O)[C@@H](NC(=O)[C@H](OC=O)c3ccccc3)[C@H]2SC1 | < 1 ×10⁻⁶ cm/s |
| COc1cc2c(cc1OC)[C@@H](Cc1cc(OC)c(OC)c(OC)c1)[N+](C)(CCCOC(=O)CC/C=C/CCC(=O)OCCC[N+]1(C)CCc3cc(OC)c(OC)cc3[C@H]1Cc1cc(OC)c(OC)c(OC)c1)CC2 (stereo not given in full) | < 1 ×10⁻⁶ cm/s |
| CC(=O)c1cc(C(=O)N[C@@H](C)Cn2ccc(-c3ccc(C#N)c(Cl)c3)n2)[nH]n1 | 164 ×10⁻⁶ cm/s |

| SMILES | Papp |
| --- | --- |
| Cn1c2cc(C=O)sc2c2cnn(Cc3ccccc3F)c(=O)c21 | 270 ×10⁻⁶ cm/s |
| O=C1C[C@@]2(C(=O)N1)C(=O)N(Cc1ccc(Br)cc1F)C(=O)c1cccn12 | 21 ×10⁻⁶ cm/s |
| C[C@@H]1C[C@@H](O)[C@]2(O)O[C@@H]3C[C@@]4(C=O)C(CC[C@@H]5C4CC[C@]4(C)[C@@H](C6=CC(=O)OC6)CC[C@]54O)C[C@H]3O[C@@H]2O1 (stereo not given in full) | < 1 ×10⁻⁶ cm/s |
| CCOC(=O)c1ccc(NC(=O)c2sc3nc4c(cc3c2N)N2CCC4CC2)cc1 | 255 ×10⁻⁶ cm/s |
| COC1CC(=C(c2cccs2)c2cccs2)C[N+](C)(C)C1 (stereo not given) | < 1 ×10⁻⁶ cm/s |
| CC(=O)Nc1cccc(-n2c(=O)n(C3CC3)c(=O)c3c(Nc4ccc(I)cc4F)n(C)c(=O)c(C)c32)c1 | 259 ×10⁻⁶ cm/s |
| CCN(CC)CCNC(=O)c1c(C)[nH]c(/C=C2\C(=O)Nc3ccc(F)cc32)c1C | 56 ×10⁻⁶ cm/s |
| COc1ccc(CCn2cnc3c(c(-c4ccccc4)cn3Cc3ccccc3)c2=N)cc1OC | 284 ×10⁻⁶ cm/s |
| N=c1c2c(-c3ccccc3)cn(Cc3ccccc3)c2ncn1[C@@H]1CCCC[C@H]1N | 101 ×10⁻⁶ cm/s |
| CCO[C@@H]1OC(=O)C[C@@H]1NC(=O)[C@@H]1CCCN1C(=O)[C@@H](NC(=O)c1ccc(N)c(Cl)c1)C(C)(C)C | 4 ×10⁻⁶ cm/s |
| CC#CC(=O)N1CCC[C@H]1c1nc(-c2ccc(C(=O)Nc3ccccn3)cc2)c2c(N)nccn12 | < 1 ×10⁻⁶ cm/s |
| CCCN(CCC)C1CCc2cccc(O)c2C1 (stereo not given) | 88 ×10⁻⁶ cm/s |
| NC1CCN(C(=O)C2CCCN(c3nc(-c4ccccc4)nc4c3CCC4)C2)CC1 (stereo not given) | 179 ×10⁻⁶ cm/s |
| CNC(=O)c1cc(Oc2ccc(NC(=O)Nc3cc(C(C)(C)C)nn3-c3ccc4ncccc4c3)c(F)c2)ccn1 | 210 ×10⁻⁶ cm/s |
| Cc1ccnc2c1NC(=O)c1cccnc1N2C1CC1 | 26 ×10⁻⁶ cm/s |
| N=c1c2c(-c3ccccc3)c(-c3ccccc3)n(Cc3ccccc3)c2ncn1C1CCC(O)CC1 (stereo not given) | 150 ×10⁻⁶ cm/s |
| Cc1ccccc1N(C)C1CN([S+](=O)([O-])c2cccc(C(F)(F)F)c2)C1 | > 300 ×10⁻⁶ cm/s |
| COc1cc2c(Nc3ccc(Cl)c(Cl)c3F)ncnc2cc1OCC1C[C@@H]2CN(C)C[C@@H]2C1 (stereo not given in full) | > 300 ×10⁻⁶ cm/s |
| CCCCOC(=O)NS(=O)(=O)c1sc(CC(C)C)cc1-c1ccc(Cn2ccnc2)cc1 | 180 ×10⁻⁶ cm/s |
| COc1ccc(-c2c(Cl)ncn2-c2ccc(S(N)(=O)=O)cc2)cc1F | 78 ×10⁻⁶ cm/s |
| O=C1Nc2ccc(C(=O)c3ccco3)cc2/C1=C/c1cc(Cl)c(O)c(Cl)c1 | 38 ×10⁻⁶ cm/s |
| NC(=O)C1=C(O)[C@@]2(O)C(=O)C3=C(O)c4c(O)cccc4C[C@H]3C[C@H]2CC1=O | 9 ×10⁻⁶ cm/s |
| CCO[C@@H]1OC(=O)C[C@@H]1NC(=O)[C@@H]1CCCN2C(=O)CC[C@H](NC(=O)c3nccc4ccccc34)C(=O)N12 | < 1 ×10⁻⁶ cm/s |
| N=c1c2c(-c3ccccc3)c(-c3ccccc3)n(CCc3ccccc3)c2ncn1CCCCO | 218 ×10⁻⁶ cm/s |

| SMILES | Papp |
| --- | --- |
| COc1ccc(Cl)cc1NC(=O)c1sc2nc3c(cc2c1N)N1CCC3CC1 | < 1 ×10⁻⁶ cm/s |
| N=c1c2c(-c3ccccc3)cn(Cc3ccccc3)c2ncn1CCCCO | 110 ×10⁻⁶ cm/s |
| O=S(=O)(Nc1cc(Cl)c(Oc2cnc3ccccc3c2)c(Cl)c1)c1ccc(Cl)cc1Cl | 24 ×10⁻⁶ cm/s |
| Cc1nn(C)c(C)c1-c1cccc2c1CCC(N(C)C)C2 (stereo not given) | 13.4 ×10⁻⁶ cm/s |
| COc1c(C)c2c(c(O)c1C/C=C(\C)CCC(=O)O)C(=O)OC2 | < 1 ×10⁻⁶ cm/s |
| N=c1c2c(-c3ccccc3)c(-c3ccccc3)n(Cc3ccccc3)c2ncn1CCCCCO | 203 ×10⁻⁶ cm/s |
| Cc1nc2c([nH]1)CCN(C(=O)c1ccc(NC(=O)c3ccccc3-c3ccccc3)cc1)c1ccccc1-2 | 98 ×10⁻⁶ cm/s |
| N[C@@H](COC(c1cccc(F)c1)c1ccccc1OCc1ccccc1)C(=O)O (stereo not given in full) | < 1 ×10⁻⁶ cm/s |
| CC(=O)Nc1ccc(C(=O)NC(C)(C)C)cc1 | 2 ×10⁻⁶ cm/s |
| Cn1nnnc1Sc1ncnc2scc(-c3cccc4c3sc3ccccc34)c12 | 12 ×10⁻⁶ cm/s |
| N=c1c2c(-c3ccccc3)c(-c3ccccc3)n(Cc3ccccc3)c2ncn1CCCCO | 259 ×10⁻⁶ cm/s |
| NCCCNCCCCNC(=O)C(O)NC(=O)CCCCCCN=C(N)N (stereo not given) | 38 ×10⁻⁶ cm/s |
| O=c1c2c(c1=O)N(CCP(=O)(O)O)CCCN2 | < 1 ×10⁻⁶ cm/s |
| CCN(CC)CCCN(c1ccccc1)C1Cc2ccccc2C1 | 125 ×10⁻⁶ cm/s |
| NC(=O)NCC(=O)N[C@H]1CC[C@H](Nc2nccc(-c3ccncc3)n2)C1 | < 1 ×10⁻⁶ cm/s |
| O=C(NO)c1cnc(NC2(c3ccccc3)CC2)nc1 | 2 ×10⁻⁶ cm/s |
| CC(C)CNc1ccnc(NCc2csc(-c3ccccc3)n2)n1 | 228 ×10⁻⁶ cm/s |
| CN(C(=O)/C=C/c1ccoc1)[C@@H]1CC[C@@]2(O)[C@H]3Cc4ccc(O)c5c4[C@@]2(CCN3CC2CC2)[C@H]1O5 | 13 ×10⁻⁶ cm/s |
| CCC(=O)C1=C(c2ccc(F)cc2)N(C(=O)CC)n2cnnc2S1 | 189 ×10⁻⁶ cm/s |
| COCCn1cnc2c(c(-c3ccccc3)c(-c3ccccc3)n2Cc2ccccc2)c1=N | 174 ×10⁻⁶ cm/s |
| N=c1c2c(-c3ccccc3)cn(Cc3ccccc3)c2ncn1C(CO)(CO)CO | > 300 ×10⁻⁶ cm/s |
| CCCCCCCCc1ccc(CCC(N)(CO)CO)cc1 | < 1 ×10⁻⁶ cm/s |
| CC1CN(c2cc3c(cc2F)c(=O)c(C(=O)O)cn3-c2ccc(F)cc2F)CCN1 (stereo not given) | 5 ×10⁻⁶ cm/s |
